Reference: US20230103631A1, “PEPTIDES AS SELECTIVE GIP RECEPTOR AGONISTS” (Sanofi, priority 2020, published 2023)
*1 amine or outer side, *2 acyl side, *3 side chain or, on linkers, in order; H or OH if unused. Where a SMILES comes first, the peptide text is derived from it. Side-chain parts run from the residue outwards. [ ]: non-standard residue; d: D form. The star is where a group is joined. C18 diacid = O=C(O)CCCCCCCCCCCCCCCCC(=O)*; γGlu = O=C(O)[C@H](CCC(=O)[*:2])N[*:1]; AEEA = NCCOCCOCC(=O)O; Aib = CC(C)(N)C(=O)O

Legend:
[1] = Pharmacokinetic evaluation in minipigs; format: in vivo; settings: female, Gottingen, minipig, plasma
[2] = Pharmacokinetic evaluation in monkeys; format: in vivo; settings: male, cynomolgus monkey, plasma
Protocol: Compounds were administered in a suitable buffer system, e.g. PBS buffer solution at pH7.4 or DPBS solution at concentrations of 0.05, 0.1, 0.5 or 1 mg/ml depending on dose, species and administration volume.
Male cynomolgus monkeys were dosed 0.1 mg/kg intravenously (i.v.) or subcutaneously (s.c.). Blood samples were collected after 0.083, 0.25, 0.5, 1, 2, 4, 8, 24, 32, 48, and 72 h post i.v. application and 0.5, 1, 2, 4, 8, 24, 48, 72, and 96 h post s.c. application, respectively. Plasma samples were analyzed after protein precipitation via liquid chromatography mass spectrometry (LC/MS). PK parameters and half-life were calculated using Phoenix-WinNonlin 8.1 using a non-compartmental model and linear trapezoidal interpolation calculation.
Pharmacokinetic profiles were determined as described in Methods.

## CC[C@H](C)[C@H](NC(=O)[C@H](Cc1ccccc1)NC(=O)[C@H](CCC(=O)O)NC(=O)[C@H](CCC(=O)O)NC(=O)[C@H](CCC(N)=O)NC(=O)[C@H](Cc1c[nH]cn1)NC(=O)[C@@H](NC(=O)[C@H](CCCNC(=N)N)NC(=O)[C@H](CC(=O)O)NC(=O)[C@H](CCCCNC(=O)COCCOCCNC(=O)COCCOCCNC(=O)CC[C@H](NC(=O)CCCCCCCCCCCCCCCCC(=O)O)C(=O)O)NC(=O)C(C)(C)NC(=O)[C@@H](NC(=O)[C@H](CO)NC(=O)[C@H](CC(C)C)NC(=O)[C@H](CC(=O)O)NC(=O)[C@H](CO)NC(=O)[C@@H](NC(=O)[C@H](Cc1ccccc1)NC(=O)[C@@H](NC(=O)CNC(=O)[C@H](CCC(=O)O)NC(=O)C(C)(C)NC(=O)[C@@H](N)Cc1ccc(O)cc1)[C@@H](C)O)[C@@H](C)CC)[C@@H](C)CC)[C@@H](C)CC)C(=O)N[C@@H](CCC(=O)O)C(=O)N[C@@H](Cc1c[nH]c2ccccc12)C(=O)N[C@@H](CC(C)C)C(=O)N[C@@H](CC(C)C)C(=O)N[C@@H](C)C(=O)N[C@@H](CCC(N)=O)C(=O)NCC(=O)N1CCC[C@H]1C(=O)N[C@@H](CO)C(=O)N[C@@H](CO)C(=O)NCC(=O)N[C@@H](C)C(=O)N1CCC[C@H]1C(=O)N1CCC[C@H]1C(=O)N1CCC[C@H]1C(=O)N[C@@H](CO)C(N)=O [SEQ ID NO: 9, H2N-Y-Aib-E-G-T-F-I-S-D-I-S-I-Aib-K[{AEEA}2-gGlu-C18OH]-DRIHQEEFIEWILAQGPSSGAPPPS-NH2] (H-Y[Aib]EGTFISDLSI[Aib]K([AEEA-AEEA-γGlu-C18 diacid])DRIHQEEFIEWLLAQGPSSGAPPPS-NH2)
[1]; iv, 0.05 mg/kg i.v.
  AUC(0-t): 177 µg·h/mL
  Cmax: 5530 ng/mL
  half-life: 75.8 h
[1]; iv, 0.05 mg/kg i.v., read-out: CI (converted)
  clearance: 3.84 mL/day/kg
[1]; sc, 0.1 mg/kg s.c.
  AUC(0-t): 228 µg·h/mL
  Cmax: 3080 ng/mL
  bioavailability: 64%
[2]; iv, 0.1 mg/kg i.v.
  AUC(0-t): 149 µg·h/mL
  Cmax: 6740 ng/mL
  half-life: 51.4 h
[2]; iv, 0.1 mg/kg i.v., read-out: CI (converted)
  clearance: 10.7 mL/day/kg
[2]; sc, 0.1 mg/kg s.c.
  AUC(0-t): 122 µg·h/mL
  Cmax: 1800 ng/mL
  bioavailability: 83%
  half-life: 58.4 h
